Data as given in patent publication US20250076280A1, “RAPID SCREENING FOR ELEVATED BILE ACIDS USING WHOLE BLOOD” (The University of Toledo, priority 2022, published 2025).

What was measured:
[1] = system: RBCs; assay: Osmotic fragility test of RBCs from CCl4-treated mice; format: in vivo, mouse; conditions: RBCs of L-TBA mice treated with CCl4 for 2 weeks vs vehicle; NaCl osmotic fragility
Protocol: (§1) C57BL/6J wild-type (WT) mice (Stock #000664) were procured from Jackson Laboratory and bred in-house in specific pathogen-free condition at the University of Toledo College of Medicine and Life Sciences. Mice were housed in cages (n=5 mice/cage) containing corn cob bedding (Bed-O-Cob; The Andersons Co.) and nestlets (Cat #CABFM00088; Ancare). The cages were housed at 23° C. under a 12/12-h light/dark phase cycle and fed a grain-based laboratory chow diet (LabDiet 5001) ad libitum. Mice were screened for serum total bile acids (TBA) prior to weaning. On day 22 for weaning, mice with low bile acids (L-TBA<40 µM) or high bile acids (H-TBA≥40 µM) were segregated into separate cages. To induce liver fibrosis in mice, carbon tetrachloride (Sigma-Aldrich, St. Louis, MO) ([…]) was administered intraperitoncally three times a week for 2 weeks with corn oil (Sigma-Aldrich) (50 μL) serving as vehicle control.
Blood was collected in EDTA-containing tubes and then 10 μl aliquots were placed into a round bottom 96-well plate. […] The degree of red blood cell (RBC) hemolysis was evaluated spectrophotometrically at 540 nm on a Biotek Eon microplate spectrophotometer and normalized to the optical density value of 0.0% buffered salt solution. […] All groups were incubated at 37° C. for 1 hr prior and measured for osmotic fragility.

[2] = Serum total bile acids in carbon tetrachloride-induced liver injury model; format: in vivo, mouse; conditions: L-TBA mice, CCl4 i.p. three times a week for 2 weeks vs vehicle control
Protocol: as §1
Total bile acids (TBA) in hemolysis-free sera were measured using a TBA assay kit (Enzyme Cycling Method; Diazyme Laboratories) according to the manufacturer's protocol.

[3] = system: RBCs from L-TBA mice; assay: Osmotic fragility test after ex-vivo bile acid supplementation of RBCs; format: cell-based, mouse; conditions: 100 μM bile acid in PBS, 1 hr at 37° C. before NaCl osmotic fragility test; vs PBS alone

Compound	resistance of RBCs to osmotic lysis [1]	increase in serum TBA levels [2] [fold]	resistance to osmotic lysis (hemolysis) of L-TBA RBCs [3]
ClC(Cl)(Cl)Cl [CCl4, carbon tetrachloride]	highly resistant to osmotic lysis	16	
C[C@H](CCC(=O)O)[C@H]1CC[C@H]2[C@@H]3[C@H](O)C[C@@H]4C[C@H](O)CC[C@]4(C)[C@H]3C[C@H](O)[C@]12C [cholic acid]			confer resistance
C[C@H](CCC(=O)NCCS(=O)(=O)O)[C@H]1CC[C@H]2[C@@H]3[C@H](O)C[C@@H]4C[C@H](O)CC[C@]4(C)[C@H]3C[C@H](O)[C@]12C [taurocholate, taurocholic acid]			failed to induce any resistance
